Measurements from patent US9889117B2, “Method for treating and/or delaying the degeneration of Purkinje cells” (EVERFRONT BIOTECH INC., priority 2014, dated 2018).

Experiments:
calbindin = test: Western blotting of cerebellum proteins, anti-calbindin antibody; assay type: in vivo; conditions: cerebellum tissue of SCA3 mice; BP 100 or 500 mg/kg/bid, ligustilide 100 mg/kg/bid; FIG. 8
Description: (§1) The MJD84.2 transgenic mice (i.e., the mice with modified ATXN3 gene) of eight weeks of age were randomly divided into five groups, with six mice in each group. The mice were treated with the following conditions: (1) untreated group; (2) treated with olive oil; (3) treated with 100 mg/kg/bid of BP; (4) treated with 500 mg/kg/bid of BP; (5) treated with 100 mg/kg/bid of ligustilide. Then, the mice were sacrificed at the age of 20 weeks and 24 weeks. Cerebellar slices staining and tissue protein extraction were performed (see Example 5). Whole brain tissue of the mice was fixed overnight with 3.7% formalin and embedded in paraffin. The samples were sectioned (4 μm) by using a Quanto kit (Thermo, USA) and mounted on a microscope slide.
(§2) The cerebellums of the mice sacrificed in example 4 were separated from the whole brain, and the proteins in the cerebellums were extracted. The purified proteins were analyzed by Western blotting assay using an anti-ubiquitin antibody and an anti-calbindin antibody, respectively, to determine the changes in the protein expression level of ubiquitin and calbindin in the cerebellum tissue of SCA3 mice in each group. β-actin was used as an internal control group.
It has been known that calbindin is a marker of Purkinje cells.

[1] = tested on: MJD84.2 transgenic mice (SCA3 mice); test: Local motor test in SCA3 mice; assay type: in vivo; conditions: BP 100 or 500 mg/kg/bid, ligustilide 100 mg/kg/bid; for total moving distance vs untreated group and group fed with olive oil: FIG. 5A; for moving times (moving number) vs untreated group and group fed with olive oil: FIG. 5B; for moving time vs untreated group and group fed with olive oil: FIG. 5C
Description: (§3) MJD84.2 transgenic mice (i.e., the mice being transfected with ATXN3 gene with human 84 CAG repeat sequence, hereinafter referred to as “SCA3 mice”) were used in this experiment. MJD84.2 transgenic mice were an animal model used for studying spinal cerebellar atrophy.
(§4) The MJD84.2 transgenic mice of two weeks of age were randomly divided into five groups, each group had six mice. The mice were treated with the following conditions for two weeks: (1) untreated group; (2) treated with olive oil (i.e., only treated with the adjuvant); (3) treated with 100 mg/kg/bid (bis in die) of BP; (4) treated with 500 mg/kg/bid of BP; (5) treated with 100 mg/kg/bid of ligustilide. The wild type mice (WT) was used as a control group. After 2 weeks, local motor and rotarod test were conducted.
Local motor test was performed to test the exercise ability of mice. 10-week-old mice were tested on rotarod once every three weeks. Then, the mice were placed in a transparent acrylic box 2 hours and were free to move. A behavioral test was conducted for 1 hour by using VersaMax 420 (AccuscanInstrumentsInc, USA), and the data was analyzed by statistical methods.

Purkinje cells = test: Immunohistochemistry staining of cerebellar slices; assay type: in vivo; conditions: cerebellum slices of SCA3 mice; BP 100 or 500 mg/kg/bid, ligustilide 100 mg/kg/bid; sacrificed at 20 and 24 weeks; FIG. 7
Description: as §1

[2] = tested on: GFP-ATXN3 protein (Ataxin3Q84); test: In vitro cell test: GFP-ATXN3 fluorescence in transfected cells; assay type: cell-based, human; conditions: 5 μg/ml, 24 hours; HEK 293T or neural stem cells transfected with pEGFP-C1-Ataxin3Q84; FIG. 1
Description: In this experiment, the effects of BP and ligustilide on the protein expression level of SCA3 protein were analyzed. First, pEGFP-C1-Ataxin3Q84 plasmid (i.e., a plasmid comprising Ataxin gene with abnormal CAG repeat number (84Q)) containing green fluorescent protein or pEGFP-C1-Ataxin3Q28 plasmid (i.e., a plasmid comprising Ataxin gene with normal CAG repeat number (28Q)) (Addgene company, U.S.) was transfected into human embryonic kidney (HEK) cells 293T (Bioresource Collection and Research Center, Taiwan) or neural stem cells (NSC). The cells were then cultured in a DMEM medium (Dulbecco's modified Eagle's medium, Thermo) containing 10% fetal bovine serum (Gibco), and incubated in an incubator with 5% CO2 at 37° C. Then, the cells were treated with 5 μg/ml BP (A10353, purchased from Alfa Aesar, U.S.; with a purity of 95%) or ligustilide (5393-015M1, purchased from Pharmaron, China) for 24 hours. The protein aggregation of GFP-ATXN3 protein in the cells of each group was observed by a fluorescence microscopy. Wild type cells and cells transfected with green fluorescent protein (GFP) were used as the control group.

[3] = tested on: MJD84.2 transgenic mice (SCA3 mice); test: Rotarod test in SCA3 mice; assay type: in vivo; conditions: BP 100 or 500 mg/kg/bid, ligustilide 100 mg/kg/bid, 4 to 40 rpm within 300 seconds, FIG. 6
Description: as §3, §4
Rotarod test was performed to test the balance and grip ability of mice. The mice were given practice two weeks before the first behavioral test. The experiment was conducted using an IITC rotarod (IITC Life Science Inc, USA).
10-week-old mice were tested on a rotarod once every three weeks. The test condition was set as a linear acceleration from 4 to 40 rpm within 300 seconds. The time (sec) that the mice fell from the rotarod (i.e., latency to fall) was recorded. […] After the rotarod test, the body weight of the mice were recorded. […]

[4] = tested on: motor neurons of zebrafishes treated with ATXN3 MO; test: Zebrafish confocal microscopy test of motor neurons; assay type: in vivo; conditions: 250 mg/kg BP with ATXN3 MO, after 48 hours; FIG. 4
Description: Zebrafish eggs were micro-injected with 300 nM/μl ATXN3 MO, 250 mg/kgBP, or ATXN3 MO in combination with 250 mg/kgBP, 125 mg/kg BP or 62.5 mg/kgBP. After 48 hours, the zebrafishes were enclosed in glass slides. The motor neurons in the living body were recorded by a confocal fluorescence microscopy.
The data shown in FIG. 4 was obtained by 100%*(the number of the survived zebrafishes/total number of the zebrafishes).

[5] = tested on: zebrafishes injected with ATXN3 MO; test: Zebrafish behavioral test (tail stimulation); assay type: in vivo; conditions: FIG. 3
Description: Morpholinos (MO) was produced by modifying the structure of a fragment of DNA, which can block protein translation process of mRNA to inhibit the expression of a target protein. The ATXN3 MO used in this experiment has a sequence of 5′-[…]-3′ (SEQ ID NO. 1), and the standard used in the control group is 5′-[…]-3′ (SEQ ID NO. 2) (hereinafter referred to as “Ct MO”). Before injection, the MO was dissolved in ddH2O, stored at −20° C. for used. Zebrafish eggs were micro-injected within about one hour after birth. After 21 to 48 hours post fertilization (hpf), the zebrafish eggs were micro-injected with ATXN3 MO or ATXN3 MO in combination with 250 mg/kg BP, 125 mg/kg BP or 62.5 mg/kg BP. After 48 hours, the fish tails were stimulated by tips, and the number of stimulation causing movement of the fish tails was measured.

ubiquitin = test: Western blotting of cerebellum proteins, anti-ubiquitin antibody; assay type: in vivo; conditions: cerebellum tissue of SCA3 mice treated with BP; FIG. 9
Description: as §1
as §2, with “control group. […]” for “control group.”

zebrafish = test: Zebrafish safe dose test (survival rate); assay type: in vivo; conditions: for survival rate of the zebrafishes: after 48 hours, 28.5° C., FIG. 2
Description: In this experiment, the zebrafishes that were used as the animal models in the experimental group were Tg (HuC:GFP), which is characterized by its primary sensory neurons (Rohon-Beard cells) that can produce fluorescence. The zebrafishes used in the control group were wild type zebrafishes. All of the zebrafishes were provided by TZCAS (Taiwan Zebrafish Core Facility at Academia Sinica, Taiwan) and TZCF (Taiwan Zebrafish Core Facility, Taiwan). First, the toxicity of BP to zebrafish was tested by injecting different dose of BP to zebrafishes. The zebrafishes were then kept at 28.5° C. After 48 hours, the survival rate of the zebrafishes was observed.
The survival rate of the zebrafishes treated with 500 mg/kg BP was 50%, and both of the survival rates of the zebrafishes treated with 250 mg/kg and 50 mg/kg BP were greater than 75%.

CCC/C=C1\OC(=O)C2=C1CCC=C2 [ligustilide, 3-butylidene-4,5-dihydrophthalide]
protein expression level of calbindin vs untreated group and group fed with olive oil (calbindin): significantly higher
total moving distance vs untreated group and group fed with olive oil [1]: higher
moving times (moving number) vs untreated group and group fed with olive oil [1]: higher
moving time vs untreated group and group fed with olive oil [1]: higher
number of the Purkinje cells vs untreated group and group fed with olive oil (Purkinje cells): significantly higher
fluorescent signal of Ataxin3Q84 in the cells vs untreated groups [2]: significantly lower
balance and grip ability (rotarod, latency to fall) vs untreated group and group fed with olive oil [3]: better

CCCC=C1OC(=O)c2ccccc21 [BP, n-butylidenephthalide]
protein expression level of calbindin vs untreated group and group fed with olive oil (calbindin): significantly higher
number of motor neurons [4]: can maintain the number of motor neurons
amount of stimulation causing the movement of fish tails ([5]; ATXN3 MO in combination with 250, 125 or 62.5 mg/kg BP, after 48 hours, vs ATXN3 MO alone): restored (i.e., decreased)
restoring of behavioral ability of the diseased zebrafishes, comparison of doses ([5]; BP of 250 mg/kg, compared with 125 and 62.5 mg/kg): the most obvious effect
total moving distance vs untreated group and group fed with olive oil [1]: higher
moving times (moving number) vs untreated group and group fed with olive oil [1]: higher
moving time vs untreated group and group fed with olive oil [1]: higher
number of the Purkinje cells vs untreated group and group fed with olive oil (Purkinje cells): significantly higher
content of the ubiquitination proteins vs untreated group and group fed with olive oil (ubiquitin): significantly higher
survival rate of the zebrafishes (zebrafish; 50 mg/kg BP injected): greater than 75%
survival rate of the zebrafishes (zebrafish; 250 mg/kg BP injected): greater than 75%
survival rate of the zebrafishes (zebrafish; 500 mg/kg BP injected): 50%
safe dose for zebrafish (zebrafish; from survival rate after 48 hours): lower than 250 mg/kg
fluorescent signal of Ataxin3Q84 in the cells vs untreated groups [2]: significantly lower
balance and grip ability (rotarod, latency to fall) vs untreated group and group fed with olive oil [3]: better
